In patent US20120277306A1, “COMPOSITION CONTAINING METAL-ACIDIC AMINO ACID CHELATE ACCELERATING ABSORPTION OF METAL” (priority 2006, published 2012):

Columns and labels:
[1] = Plasma zinc concentration over time after administration of zinc samples; format: in vivo, Sprague-Dawley rat; details: zinc 40 mg/kg; for plasma zinc concentration over time: blood at 0.5, 1, 2, 4, 8 hours
Description: These experimental animals were randomly assigned into a zinc sulfate-administered group, a zinc arginine-administered group and a zinc-aspartate chelate-administered group. After animals were fasted for 12 hours, each zinc sample was administered to rats, such that a zinc concentration in the sample is 40 mg/kg. After administration of the samples was complete, blood was collected at a time point of 0.5, 1, 2, 4, and 8 hours, respectively, and treated with heparin. Then, blood plasma was stored in a refrigerator and used for analysis of zinc concentrations. On the other hand, in order to examine distribution of zinc in the tissue, each zinc sample was administered to rats. After 8 hours, animals were sacrificed to remove organs. Zinc concentrations in the blood plasma and tissues were determined by fluorometry using Zinquin.

[2] = Distribution of zinc in tissues (prostate, testis) after administration of zinc samples; format: in vivo, Sprague-Dawley rat
ZnT-2 = test: Expression of zinc transporter protein mRNA in prostatic tissue (RT-PCR); format: in vivo; details: compared to before oral administration of zinc
Description: In order to examine effects of zinc-aspartate complex on the expression of ZnT-2 and ZnT-4, known as zinc transporter proteins, experiments were carried out according to the following procedure.
Using Trizol Reagent (Invitrogen, USA), total RNA was extracted from 0.1 g of prostatic tissue. Using M-MLV reverse transcriptase (Invitrogen, USA), cDNA was synthesized from 5 μg of the extracted total RNA. 20 pmol of a primer was added to 3 μl of cDNA to make a volume of 20 μl and PCR was carried out as follows: initial denaturation at 95° C. for 5 min, followed by 26 cycles of denaturation at 94° C. for 1 min, annealing at an annealing temperature corresponding to conditions of each primer for 1 min and extension at 72° C. for 1 min, and final extension at 72° C. for 10 min.
PCR products were subjected to electrophoresis on 1.5% agarose gel containing EtBr, followed by confirmation of products under UV irradiation.
Effects of the zinc-aspartate complex, zinc sulfate and zinc arginine on the expression of mRNAs for ZnT-2, ZnT-4 and G3PDH were investigated.

[3] = system: prostate cancer cell line (R3327 AT-3.1); test: Prostate cancer model, growth of cancer cells injected into the prostate; format: in vivo, COP rat
Description: 10-week-old COP male rats (Japan SLC, Shizuoka, Japan) were housed and allowed to acclimate to the new environment for seven days prior to the experiment, in a breeding room maintained at a temperature of 22±2° C., humidity of 55±5%, and a 12-h light/dark (L/D) cycle (light from 8:00 a.m. to 8:00 p.m.).
5×10^4 cells/head of the prostate cancer cell line (R3327 AT-3.1) were injected into the prostate of animals and growth of cancer cells was measured.

[4] = system: patients with chronic prostatitis; test: Clinical trial of zinc-aspartate chelate in chronic prostatitis patients (NIH-CPSI); format: in vivo, human
Description: 34 patients with a medical history of more than 5 years of chronic prostatitis were administered with a zinc-aspartate chelate at a dose of 50 mg/day for 8 weeks. Clinical trials were conducted at the Department of Urology, College of Medicine, Korea University (Seoul, Korea). Prostatitis classification and symptom relief were analyzed according to National Institutes of Health Chronic Prostatitis Symptom Index (NIH-CPSI, proposed by NIH in 1995). As clinical effects by a conventional therapy, the data of the clinical study of Sungkyunkwan University School of Medicine (Seoul, Korea), published in the Korean Journal of Urology (2001), were cited.
Tables 3 and 4 below respectively show the results for chronic prostatitis patients with administration of an antibiotic and an anti-inflammatory drug as conventional therapeutic agents and with administration of the zinc-aspartate chelate, in conjunction with the results for the control group.

[5] = system: prostatitis-induced rats (Escherichia coli ATCC 25922); test: White rat model of chronic bacterial prostatitis, H&E histology of prostate
[6] = 4 and 8 hours after administration
[7] = 8 hours after administration, zinc 40 mg/kg, p<0.001
[8] = 15 mg/kg/day oral, 30 days, H&E stained prostate sections

N=C(N)NCCC[C@H](N)C(=O)O.[Zn] [zinc arginine]
plasma zinc concentration compared to zinc sulfate-administered group [1]: significant increase | plasma zinc concentration over time [1]: time-dependent increase

O=S(=O)([O-])[O-].[Zn+2] [zinc sulfate]
time point of maximum blood zinc level after administration [1]: 2 h | plasma zinc concentration over time [1]: time-dependent increase

zinc-aspartate chelate
plasma zinc concentration compared to zinc sulfate-administered group [1]: significant increase | time point of maximum blood zinc level after administration [1]: 2 h | plasma zinc concentration over time [1]: time-dependent increase | intraprostatic zinc level compared to zinc sulfate- and zinc arginine-administered groups [2, 6]: significantly high zinc concentration | intratesticular zinc level compared to zinc sulfate- and zinc arginine-administered groups [2, 6]: significantly high zinc concentration | zinc concentration in testis [2, 7]: significantly high zinc concentration | zinc concentration in the prostatic tissue [2, 7]: significantly high zinc concentration | expression level of ZnT-2 mRNA (ZnT-2): highest increase | weight of tumor mass compared to the control group ([3]; 10 mg/kg oral daily): significant weight reduction of tumor mass | weight of tumor mass compared to the Taxel group ([3]; 10 mg/kg oral daily vs DoceTaxel 10 mg/kg once a week I.P): much lower weight of tumor mass | side effects ([4]; 50 mg/day for 8 weeks, 34 patients): no reports showing noticeable side effects | NIH-CPSI Dysuria, after treatment ([4]; 8 weeks, oral administration, 50 mg/day, P 0.01): 4.02 | NIH-CPSI Pain, after treatment ([4]; 8 weeks, oral administration, 50 mg/day, P 0.036): 6.82 | NIH-CPSI Quality of life, after treatment ([4]; 8 weeks, oral administration, 50 mg/day, P 0.04): 2.61 | NIH-CPSI Dysuria, before treatment ([4]; baseline, n = 34): 5.53 | NIH-CPSI Pain, before treatment ([4]; baseline, n = 34): 8.412 | NIH-CPSI Quality of life, before treatment ([4]; baseline, n = 34): 3.53 | therapeutic effects compared with conventional drug therapy and physical therapy ([4]; chronic prostatitis patients, Tables 3 and 4): almost the similar level of therapeutic effects | fibrosis in the interstitium [5, 8]: substantially no progress of fibrosis | infiltration of inflammatory cells into and around glandular tissues [5, 8]: no infiltration of inflammatory cells | prostate tissue morphology ([5]; 15 mg/kg/day oral, 30 days, compared with normal group): normal tissue morphology comparable to that of the normal group | anti-inflammatory effects ([5]; E. coli inoculated prostate, oral administration, stained prostate tissues): excellent anti-inflammatory effects
